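GI50: concentration for 50% inhibition of growth. The concentration for full growth arrest is given as TGI.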
What was measured:
Experiment in all cases: growth of human tumour cells (NCI), 384-well format
786-0 renal = test system: 786-0 renal
A498 renal = test system: A498 renal
A549 NSCLC = test system: A549 NSCLC
ACHN renal = test system: ACHN renal
BT-549 breast = test system: BT-549 breast
CAKI-1 renal = test system: CAKI-1 renal
CCRF-CEM leukemia = test system: CCRF-CEM leukemia
COLO 205 colon = test system: COLO 205 colon
DU-145 prostate = test system: DU-145 prostate
EKVX NSCLC = test system: EKVX NSCLC
HCC-2998 colon = test system: HCC-2998 colon
HCT-116 colon = test system: HCT-116 colon
HCT-15 colon = test system: HCT-15 colon
HL-60(TB) leukemia = test system: HL-60(TB) leukemia
HOP-62 NSCLC = test system: HOP-62 NSCLC
HOP-92 NSCLC = test system: HOP-92 NSCLC
HS 578T breast = test system: HS 578T breast
HT29 colon = test system: HT29 colon
IGROV1 ovarian = test system: IGROV1 ovarian
K-562 leukemia = test system: K-562 leukemia
KM12 colon = test system: KM12 colon
LOX IMVI melanoma = test system: LOX IMVI melanoma
M14 melanoma = test system: M14 melanoma
MALME-3M melanoma = test system: MALME-3M melanoma
MCF7 breast = test system: MCF7 breast
MDA-MB-231 breast = test system: MDA-MB-231 breast
MDA-MB-435 melanoma = test system: MDA-MB-435 melanoma
MDA-MB-468 breast = test system: MDA-MB-468 breast
MOLT-4 leukemia = test system: MOLT-4 leukemia
NCI-H226 lung = test system: NCI-H226 lung
NCI-H23 lung = test system: NCI-H23 lung
NCI-H322M lung = test system: NCI-H322M lung
NCI-H460 NSCLC = test system: NCI-H460 NSCLC
NCI-H522 lung = test system: NCI-H522 lung
NCI/ADR-RES ovarian = test system: NCI/ADR-RES ovarian
OVCAR-3 ovarian = test system: OVCAR-3 ovarian
OVCAR-4 ovarian = test system: OVCAR-4 ovarian
OVCAR-5 ovarian = test system: OVCAR-5 ovarian
OVCAR-8 ovarian = test system: OVCAR-8 ovarian
PC-3 prostate = test system: PC-3 prostate
RPMI-8226 leukemia = test system: RPMI-8226 leukemia
RXF 393 renal = test system: RXF 393 renal
SF-268 CNS = test system: SF-268 CNS
SF-295 CNS = test system: SF-295 CNS
SF-539 CNS = test system: SF-539 CNS
SK-MEL-2 melanoma = test system: SK-MEL-2 melanoma
SK-MEL-28 melanoma = test system: SK-MEL-28 melanoma
SK-MEL-5 melanoma = test system: SK-MEL-5 melanoma
SK-OV-3 ovarian = test system: SK-OV-3 ovarian
SN12C renal = test system: SN12C renal
SNB-19 CNS = test system: SNB-19 CNS
SNB-75 CNS = test system: SNB-75 CNS
SR leukemia = test system: SR leukemia
SW-620 colon = test system: SW-620 colon
T-47D breast = test system: T-47D breast
TK-10 renal = test system: TK-10 renal
U251 glioblastoma = test system: U251 glioblastoma
UACC-257 melanoma = test system: UACC-257 melanoma
UACC-62 melanoma = test system: UACC-62 melanoma

`Nc1ncn([C@H]2CC(O)[C@@H](CO)S2)c(=O)n1` (stereo partly specified) showed a GI50 ([…]-0 renal) of 0.178 µM, a TGI (786-0 renal) of 10.9 µM and a GI50 (A498 renal) of 0.146 µM. It also gave a TGI (A498 renal) of 2.65 µM, a GI50 (A549 NSCLC) of 0.155 µM and a TGI (A549 NSCLC) of 3.05 µM. It also gave a GI50 (ACHN renal) of 0.111 µM, a TGI (ACHN renal) of 11.7 µM and a GI50 (BT-549 breast) of 0.619 µM. It also gave a TGI (BT-549 breast) of 6.52 µM, a GI50 (CAKI-1 renal) of 0.266 µM and a TGI (CAKI-1 renal) of 14.7 µM. For the same compound, the GI50 (CCRF-CEM leukemia) was 0.0173 µM, the TGI (CCRF-CEM leukemia) was 0.595 µM and the GI50 (COLO 205 colon) was 0.239 µM. It also gave a TGI (COLO 205 colon) of 1.76 µM, a GI50 (DU-145 prostate) of 0.366 µM and a GI50 (EKVX NSCLC) of 3.16 µM. For the same compound, the TGI (EKVX NSCLC) was > 75.4 µM, the GI50 (HCC-2998 colon) was 0.124 µM and the TGI (HCC-2998 colon) was 3.28 µM. The GI50 (HCT-116 colon) was 0.0558 µM, the TGI (HCT-116 colon) was 5.34 µM and the GI50 (HCT-15 colon) was 1.09 µM. For the same compound, the TGI (HCT-15 colon) was 22.1 µM, the GI50 (HL-60(TB) leukemia) was 0.114 µM and the TGI (HL-60(TB) leukemia) was 0.573 µM. For the same compound, the GI50 (HOP-62 NSCLC) was 0.417 µM, the TGI (HOP-62 NSCLC) was 5.26 µM and the GI50 (HOP-92 NSCLC) was 0.284 µM. For the same compound, the TGI (HOP-92 NSCLC) was > 100 µM, the GI50 (HS 578T breast) was 1.58 µM and the TGI (HS 578T breast) was 17.9 µM. For the same compound, the GI50 (HT29 colon) was 1.36 µM, the TGI (HT29 colon) was > 77.8 µM and the GI50 (IGROV1 ovarian) was 2.78 µM. The TGI (IGROV1 ovarian) was > 100 µM, the GI50 (K-562 leukemia) was 0.2 µM and the TGI (K-562 leukemia) was 12.6 µM. The GI50 (KM12 colon) was 0.441 µM, the TGI (KM12 colon) was > 100 µM and the GI50 (LOX IMVI melanoma) was 0.534 µM. It also gave a TGI (LOX IMVI melanoma) of 3.41 µM, a GI50 (M14 melanoma) of 2.34 µM and a TGI (M14 melanoma) of 17.6 µM. For the same compound, the GI50 (MALME-3M melanoma) was 0.257 µM, the TGI (MALME-3M melanoma) was 2.03 µM and the GI50 (MCF7 breast) was 0.256 µM. The TGI (MCF7 breast) was > 100 µM, the GI50 (MDA-MB-231 breast) was 0.251 µM and the TGI (MDA-MB-231 breast) was 3.42 µM. The GI50 (MDA-MB-435 melanoma) was 1.12 µM, the TGI (MDA-MB-435 melanoma) was > 100 µM and the GI50 (MDA-MB-468 breast) was 0.153 µM. It also gave a TGI (MDA-MB-468 breast) of 0.741 µM, a TGI (MOLT-4 leukemia) of 0.0144 µM and a GI50 (NCI-H226 lung) of 1.71 µM. The TGI (NCI-H226 lung) was 20.7 µM, the GI50 (NCI-H23 lung) was 0.272 µM and the TGI (NCI-H23 lung) was 1.8 µM. The GI50 (NCI-H322M lung) was 1.32 µM, the TGI (NCI-H322M lung) was > 100 µM and the GI50 (NCI-H460 NSCLC) was 0.0399 µM. For the same compound, the TGI (NCI-H460 NSCLC) was 0.491 µM, the GI50 (NCI-H522 lung) was 0.0501 µM and the TGI (NCI-H522 lung) was 0.529 µM. For the same compound, the GI50 (NCI/ADR-RES ovarian) was 0.139 µM, the TGI (NCI/ADR-RES ovarian) was 1.26 µM and the GI50 (OVCAR-3 ovarian) was 0.461 µM. The TGI (OVCAR-3 ovarian) was 7.09 µM, the GI50 (OVCAR-4 ovarian) was 2.61 µM and the TGI (OVCAR-4 ovarian) was > 100 µM. The GI50 (OVCAR-5 ovarian) was 3.19 µM, the TGI (OVCAR-5 ovarian) was > 100 µM and the GI50 (OVCAR-8 ovarian) was 0.0822 µM. The TGI (OVCAR-8 ovarian) was 2.69 µM, the GI50 (PC-3 prostate) was 1.27 µM and the TGI (PC-3 prostate) was > 75.1 µM. For the same compound, the GI50 (RPMI-8226 leukemia) was 0.622 µM, the TGI (RPMI-8226 leukemia) was 2.68 µM and the GI50 (RXF 393 renal) was 0.839 µM. For the same compound, the TGI (RXF 393 renal) was 15.1 µM, the GI50 (SF-268 CNS) was 1.24 µM and the TGI (SF-268 CNS) was 24 µM. For the same compound, the GI50 (SF-295 CNS) was 7.65 µM, the TGI (SF-295 CNS) was > 74.7 µM and the GI50 (SF-539 CNS) was 2.02 µM. It also gave a TGI (SF-539 CNS) of 45 µM, a GI50 (SK-MEL-2 melanoma) of 0.253 µM and a TGI (SK-MEL-2 melanoma) of 0.691 µM. The GI50 (SK-MEL-28 melanoma) was 0.34 µM, the TGI (SK-MEL-28 melanoma) was 2.75 µM and the GI50 (SK-MEL-5 melanoma) was 0.0706 µM. It also gave a TGI (SK-MEL-5 melanoma) of 1.33 µM, a GI50 (SK-OV-3 ovarian) of 1.82 µM and a TGI (SK-OV-3 ovarian) of 33.6 µM. The GI50 (SN12C renal) was 0.251 µM, the TGI (SN12C renal) was > 39.9 µM and the GI50 (SNB-19 CNS) was 0.442 µM. For the same compound, the TGI (SNB-19 CNS) was > 100 µM, the GI50 (SNB-75 CNS) was 7.75 µM and the TGI (SNB-75 CNS) was > 74.1 µM. It also gave a GI50 (SR leukemia) of 0.123 µM, a TGI (SR leukemia) of 0.808 µM and a GI50 (SW-620 colon) of 0.377 µM. For the same compound, the TGI (SW-620 colon) was 16.2 µM, the GI50 (T-47D breast) was 7.69 µM and the TGI (T-47D breast) was > 100 µM. The GI50 (TK-10 renal) was 4.22 µM, the TGI (TK-10 renal) was > 100 µM and the GI50 (U251 glioblastoma) was 1.92 µM. For the same compound, the TGI (U251 glioblastoma) was 24.8 µM, the GI50 (UACC-257 melanoma) was 4.76 µM and the TGI (UACC-257 melanoma) was 21.4 µM. It also gave a GI50 (UACC-62 melanoma) of 1.23 µM and a TGI (UACC-62 melanoma) of 17.3 µM.

Source: PubChem BioAssay (NCI)
